Assay results reported in patent US20220117968A1, “THIENO[2,3-D)PYRIMIDINES AND BENZOFURO(3,2-D)PYRIMIDINES AS ANTIMICROBIAL AGENTS” (Saint Louis University, priority 2017, published 2022).
Values after ≈ are worked out from the molar mass of the structure shown.

Test system: WT Mtb Erdman strain
Test: Microplate Alamar Blue Assay (MABA)
Format: cell-based
Conditions: Mycobacterium tuberculosis, Middlebrook 7H9 media, 7 days at 37° C., resazurin 24 hours; for MIC50: concentration that inhibits mycobacterial survival by 50%, read-out: MABA MIC50; for MIC90: concentration that inhibits mycobacterial survival by 90%, read-out: MABA MIC90

| Compound | MIC50 [µM] | MIC90 [µM] |
| --- | --- | --- |
| Cc1cc2c(NC3CC3)nc(-c3ccccc3)nc2s1 [Example 1062, N-Cyclopropyl-6-methyl-2-phenyl-thieno[2,3-d]pyrimidin-4-amine] | 2.88 (≈ 0.81 µg/mL) | 6.01 (≈ 1.69 µg/mL) |
| Cc1cc2c(NCCCc3ccccc3)nc(C(F)(F)F)nc2s1 [Example 1536, 6-Methyl-N-(3-phenylpropyl)-2-(trifluoromethyl)thieno[2,3-d]pyrimidin-4-amine] | 0.386 (≈ 0.136 µg/mL) | 0.479 (≈ 0.168 µg/mL) |
| Cc1nc(NC2CC2)c2oc3ccccc3c2n1 [Example 1151, N-Cyclopropyl-2-methyl-benzofuro[3,2-d]pyrimidin-4-amine] | 11.1 (≈ 2.66 µg/mL) | 33.9 (≈ 8.11 µg/mL) |
| CCc1nc(NCCCC(F)(F)F)c2c(C)csc2n1 [Example 1700, 2-Ethyl-5-methyl-N-(4,4,4-trifluorobutyl)thieno[2,3-d]pyrimidin-4-amine] | 26.8 (≈ 8.13 µg/mL) | 30.7 (≈ 9.31 µg/mL) |
| FC(F)(F)c1nc(NCCCc2ccccc2)c2ccsc2n1 [Example 1537, N-(Phenylpropyl)-2-(trifluoromethyl)thieno[2,3-d]pyrimidin-4-amine] | 0.439 (≈ 0.148 µg/mL) | 1.14 (≈ 0.385 µg/mL) |
| CCc1nc(NC2CC2)c2cc(Cl)sc2n1 [Example 1181, 6-Chloro-N-cyclopropyl-2-ethyl-thieno[2,3-d]pyrimidin-4-amine] | 3.06 (≈ 0.776 µg/mL) | 7.64 (≈ 1.94 µg/mL) |
| CCc1nc(NC2CC2)c2cc(C3CC3)sc2n1 [Example 1161, N,6-Dicyclopropyl-2-ethyl-thieno[2,3-d]pyrimidin-4-amine] | 31.3 (≈ 8.12 µg/mL) | 36.3 (≈ 9.42 µg/mL) |
| CCc1nc(Nc2ccccc2)c2cc(C)sc2n1 [Example 1304, 2-Ethyl-6-methyl-N-phenylthieno[2,3-d]pyrimidin-4-amine] | 25.2 (≈ 6.79 µg/mL) | 41.6 (≈ 11.2 µg/mL) |
| Cc1cccc(-c2nc(NCCCC(F)(F)F)c3c(C)csc3n2)n1 [Example 1711, 5-methyl-2-(6-methylpyridin-2-yl)-N-(4,4,4-trifluorobutyl)thieno[2,3-d]pyrimidin-4-amine] | 6.48 (≈ 2.37 µg/mL) | 19.4 (≈ 7.11 µg/mL) |
| FC(F)(F)CCCNc1nc(C(F)(F)C(F)(F)F)nc2sccc12 [Example 1549, 2-(Perfluoroethyl)-N-(4,4,4-trifluorobutyl)thieno[2,3-d]pyrimidin-4-amine] | 22.3 (≈ 8.46 µg/mL) | 24.2 (≈ 9.18 µg/mL) |
| Cc1cc2c(NCCCc3ccccc3)nc(C(F)(F)C(F)(F)F)nc2s1 [Example 1538, 6-Methyl-2-(1,1,2,2,2-pentafluoroethyl)-N-(3-phenylpropyl)thieno[2,3-d]pyrimidin-4-amine] | 0.597 (≈ 0.24 µg/mL) | 1.1 (≈ 0.442 µg/mL) |
| CCc1nc(NCc2ccccc2)c2cc(C)sc2n1 [Example 1303, N-Benzyl-2-ethyl-6-methylthieno[2,3-d]pyrimidin-4-amine] | 10.6 (≈ 3 µg/mL) | 20.8 (≈ 5.89 µg/mL) |
| CCCCNc1nc(C(F)(F)C(F)(F)F)nc2sccc12 [Example 1547, N-Butyl-2-(perfluoroethyl)thieno[2,3-d]pyrimidin-4-amine] | 21.9 (≈ 7.12 µg/mL) | 23.8 (≈ 7.74 µg/mL) |
| CCCCNc1nc(CC)nc2sc(C)cc12 [Example 0728, N-butyl-2-ethyl-6-methylthieno[2,3-d]pyrimidin-4-amine] | 0.182 (≈ 0.0454 µg/mL) | 0.524 (≈ 0.131 µg/mL) |
| Cc1nc(NCCc2ccccc2)c2c(C)c(C)sc2n1 [Example 0798, 2,5,6-Trimethyl-N-(2-phenylethyl)thieno[2,3-d]pyrimidin-4-amine] | 27.4 (≈ 8.15 µg/mL) | 32.9 (≈ 9.79 µg/mL) |
| Cc1cc2c(NCCCC(F)(F)F)nc(C(F)(F)F)nc2s1 [Example 1551, 6-Methyl-N-(4,4,4-trifluorobutyl)-2-(trifluoromethyl)thieno[2,3-d]pyrimidin-4-amine] | 0.846 (≈ 0.29 µg/mL) | 3.88 (≈ 1.33 µg/mL) |
| Cc1nc(NCCCc2ccccc2)c2oc3ccccc3c2n1 [Example 1299, 2-Methyl-N-(3-phenylpropyl)benzofuro[3,2-d]pyrimidin-4-amine] | 0.128 (≈ 0.0406 µg/mL) | 0.188 (≈ 0.0597 µg/mL) |
| CCc1nc(NCCCN(C)C)c2cc(C)sc2n1 [Example 0935, [3-({2-ethyl-6-methylthieno[2,3-d]pyrimidin-4-yl}amino)propyl]dimethylamine] | > 50 | > 50 |
